Common to all, as to assay: NCI anticancer screen, dose series, 48 h
Experiment [1] has as its system M19-MEL melanoma.
For experiment [2], the system named is KM20L2 colon.
Experiment [3] has as its system DMS 114 small cell lung.
Experiment [4] concerns XF 498 CNS.
For experiment [5], the system named is DLD-1 colon.
The subject of experiment [6] is SNB-78 CNS.
In experiment [7] the test system is RXF-631 renal.
The test system of experiment [8] is LXFL 529 NSCLC.
For experiment [9], the system named is MDA-N.
In experiment [10] the test system is SN12K1 renal.

Where “and” joins values, the source holds several entries; their conditions need not be identical. Equal values may be shown once.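 Assay format: 96-well plates, 48-hour exposure. GI50 is the concentration that inhibits growth by half. TGI is the concentration that stops growth completely.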 Bounds are passed on as bounds.

From PubChem BioAssay (NCI) come the findings set out here.

On to `CC(=O)OCC1OC(OC2CC3C(C)(C)C(OC(C)=O)CC[C@]3(C)C3CCC45CC4(CC[C@H]5C(C)CC(O)C4OC4(C)C)[C@]23C)C(O)C(O)C1O` (some centres not stated), for which the GI50 in [1] was 2.35 µM; in [2], greater than 60 µM; in experiment [4], 1.26 µM; in experiment [5], 2.38 µM; in [6] it was 3.96 µM; in [8], 3.74 µM. Further, the TGI in [1] is 6.5 µM and 6.19 µM; in [3], 5.46 µM and 4.32 µM; in experiment [4], 3.64 µM and 3.81 µM; in experiment [5], 4.4 µM and 4.77 µM; in experiment [6] it was 13.3 µM and 16.2 µM; in experiment [7], 9.55 µM. Also, the TGI in experiment [8] is 10.6 µM and 15.2 µM.

As to `CCCCCCCCCCCCCC/C(C(=O)OC)=C(/O)C(=O)OCC`, the TGI was greater than 100 µM in experiment [1]; greater than 100 µM in experiment [3]; 53.8 µM in experiment [4]; greater than 100 µM in experiment [5]; greater than 100 µM in experiment [6]; 93.6 µM in experiment [7]. This compound registered a TGI in [8] greater than 100 µM.

`O=C1CC2CCCCC2=C1O` (configuration not stated): the TGI in experiment [1], in [3], in [4], in [5], in [6] and in [7] was greater than 100 µM each time. The TGI in experiment [8] was greater than 100 µM.

Take `NC(=O)c1csc(C2C=CC(CO)O2)n1` (configuration not stated): the TGI in experiment [2], in experiment [3], in experiment [4], in [6], in experiment [7] and in [8] was greater than 100 µM each time.

For the compound `Cn1cc2c(n1)c(N/N=C/c1ccccc1)nn1nnnc21`, the TGI in experiment [1], in experiment [2], in experiment [3], in experiment [4], in [5] and in experiment [6] was greater than 100 µM in each case. Also, the TGI in experiment [7] and in experiment [8] was greater than 100 µM throughout.

With `COC(=O)c1ccccc1NC(=O)C(=O)CC(=O)c1ccccc1NC1=CC(=O)C(=O)c2ccccc21`, the TGI in experiment [9] was 3.18 µM; in [1], 4.49 µM; in experiment [2] it was greater than 100 µM; in experiment [3] it was 5.33 µM; in experiment [4], 30.9 µM; in experiment [5], 30.4 µM. The results for the TGI in experiment [6], in experiment [7] and in experiment [8] were greater than 100 µM, greater than 80.8 µM and 27.2 µM, respectively.

As for `C=CCNC1=C(C(=O)OCC)C(=O)CO1`, the TGI in experiment [1], in [2], in experiment [3], in [4], in experiment [5] and in [6] was greater than 100 µM throughout. Besides, the TGI in experiment [7] and in experiment [8] was greater than 100 µM throughout.

As for `Cc1ccc(S(=O)(=O)CNC(=S)CCCC(=S)NCS(=O)(=O)c2ccc(C)cc2)cc1`, the TGI in [1], in experiment [2], in experiment [4], in experiment [5], in experiment [6] and in experiment [7] was greater than 100 µM each time. The same compound registered a TGI in experiment [8] greater than 100 µM.

Turning to `COc1cc(-c2oc3c(OC)c(OC)cc(O)c3c(=O)c2OC)ccc1O`, the TGI was greater than 50 µM in experiment [9]; greater than 100 µM in [2]; greater than 100 µM in experiment [3]; 16.1 µM in experiment [4]; greater than 100 µM in experiment [5]; greater than 100 µM in [6]. Besides, the TGI in experiment [7] and in experiment [8] was greater than 100 µM throughout.

`O=[N+]([O-])c1ccc(NC2OCC(O)C(O)C2O)cc1` (configuration not stated): the TGI in experiment [2], in experiment [3], in experiment [4], in [5], in [6] and in experiment [7] was greater than 100 µM throughout. In experiment [8], this compound registered a TGI greater than 100 µM.

`CCc1cccc(CC)c1NC(=S)NC(=O)c1ccc(Br)cc1`: the TGI in experiment [9], in [1], in experiment [2], in experiment [3], in experiment [4] and in experiment [5] was greater than 100 µM each time. Besides, the TGI in experiment [6], in [7] and in [8] was greater than 100 µM each time.

For the compound `O=C([O-])c1ccc2c(c1)-c1nc-2nc2[n-]c(nc3nc(nc4[n-]c(n1)c1ccc(C(=O)[O-])cc41)-c1cc(C(=O)[O-])ccc1-3)c1ccc(C(=O)[O-])cc21.[Fe+2]`, the GI50 in experiment [1] is greater than 31.8 µM; in experiment [2] it was greater than 50 µM; in experiment [3] it was greater than 23.2 µM; in experiment [4], greater than 50 µM; in experiment [5], greater than 32.1 µM; in experiment [6], greater than 50 µM. Also, the GI50 in experiment [7] was greater than 50 µM; in experiment [8], greater than 41.6 µM. The TGI in experiment [1] was greater than 50 µM; in [2], greater than 50 µM; in experiment [3], greater than 32.6 µM; in [4], greater than 50 µM; in experiment [5] it was greater than 50 µM; in [6] it was greater than 50 µM. Moreover, the TGI in experiment [7] and in experiment [8] was greater than 50 µM each time.

Turning to `C#CCN1CCN(C(=S)N/N=C(\C)c2ccccn2)CC1`, the TGI in experiment [9] is 3.76 µM and 8.58 µM; in experiment [2] it was 15 µM; in [10], 2.22 µM; in experiment [4], 2.72 µM; in experiment [5], 6.58 µM; in experiment [6], 21.7 µM. Also, in [8], the TGI worked out at 18.2 µM. Moreover, the GI50 is less than 0.001 µM in [2] and 0.00155 µM in experiment [5].

Regarding `CN(C)c1ccc(/C=C2\CNC/C(=C\c3ccc(N(C)C)cc3)C2=O)cc1`, the TGI in experiment [1] is 46.8 µM; in experiment [2], greater than 100 µM; in experiment [3] it was 34.7 µM; in experiment [4], 48.6 µM; in [5], 46.2 µM; in [6], greater than 100 µM. For the same compound, the figures for the TGI in experiment [7] and in [8] were 60.7 µM and 98.2 µM, respectively.
